This note sets out measurements from patent US20090105119A1, “ASPARAGINE-10-SUBSTITUTED NONADEPSIPEPTIDES” (priority 2006, published 2009).

Data set [1] is described as follows: Determination of the free fraction (fu) in plasma. The class given is in vitro ADME, rat. The following applies: pH 7.4. Here is the method: (§1) Principle of the Determination of the Free Fraction Via Transil:
(§2) The method described here for determining the free fraction (fu) of a test substance is divided into 2 parts:
(§3) a) Determination of the Transil®/buffer distribution ratio (MAbuffer) by incubating the test substance in a Transil®-buffer (pH 7.4) dispersion and subsequently determining the concentration in the dispersion and in the buffer supernatant.
(§4) b) Determination of the Transil®/plasma distribution ratio (MAplasma) by incubating the test substance in a Transil®-plasma dispersion and subsequently determining the concentration in the dispersion and in the plasma.
(§5) The quotient of the two distribution ratios yields fu.
(§6) In the case of highly protein-bound substances, the plasma is usually diluted with isotonic phosphate buffer (pH 7.4) and then suspended with Transil®. The determination of fu′ (free fraction in diluted plasma) in this diluted protein solution takes place in analogy to the determination of fu. The free fraction in undiluted plasma is calculated from fu′ and the dilution factor.
(§7) Concerning this method, compare also: Schuhmacher, Joachim; Kohlsdorfer, Christian; Buehner, Klaus; Brandenburger, Tim; Kruk, Renate, “High-throughput determination of the free fraction of drugs strongly bound to plasma proteins.” Journal of Pharmaceutical Sciences 2004, 93, 816-830.
(§8) Determination of the Membrane Affinity of a Test Substance after Distribution Between Transil® and Buffer (MAbuffer):
(§9) All incubations are carried out in suitable glass vessels, e.g. glass vials, ground-socket test tubes. In general the total volume is 0.5-5 ml, and the Transil® volume 10-100 μl. In cases where the membrane affinities are expected to be high, the Transil® dispersion can be diluted up to 20-fold with phosphate buffer of pH 7.4, e.g. Dulbecco's PBS. Phosphate buffer of pH 7.4 is provided in the incubation vessels, and the Transil® is pipetted in, after thorough mixing. The test substance is pipetted in at a concentration of, for example, 200 ng/mL, n=6. The proportion of organic solvent should be <2%. The mixtures are incubated at room temperature for 30 min, e.g. on a mini-shaker at an angle of about 45°, at about 400 rpm. In order to determine the 100% value at least one aliquot of, for example, 100 μl, is removed and the remaining mixture is centrifuged at about 1800 g for about 10 min. At least 2 aliquots (e.g. 100 μl) of the supernatant are removed from each sample for the determination of the concentration.
(§10) Determination of MAplasma in Undiluted or Diluted Plasma:
(§11) The total incubation volume and the added volume of Transil® depend on the expected free fraction. In general the total volume is 0.5-1 ml, and the Transil® volume is 10-100 μl. In cases where the free fractions are very low, the plasma of the species to be investigated is diluted, with isotonic buffer solution, pH 7.4, e.g. 10-400-fold, and the Transil® is then added. The subsequent procedure takes place as described above for the determination of the MAbuffer values. […]
(§12) The plasma of the species to be investigated is filtered through a semipermeable membrane. The substance concentration in the filtrate is measured and the free fraction fu is calculated therefrom. […] The substance concentration in the ultrafiltrate (Cu; unbound substance concentration) and in the plasma before centrifugation (C; total substance concentration) is measured. The free fraction is calculated by the formula: fu (%)=Cu/C*100.

Data set [2] deals with Staphylococcus aureus 133. In kind it is cell-based. The settings on record: Isosensitest medium, 10^5 microbes per ml, 37° C., 18-24 hours. The protocol:
(§13) Determination of the Minimum Inhibitory Concentration (MIC):
(§14) The MIC is determined in the liquid dilution test in accordance with the NCCLS guidelines. Overnight cultures of Staphylococcus aureus 133, Enterococcus faecalis 27159, E. faecium 4147 and Streptococcus pneumoniae G9a are incubated with the described test substances in a 1:2 dilution series. The MIC determination is carried out with a cell count of 10^5 microbes per ml in Isosensitest medium (Difco, Irvine/USA), with the exception of S. pneumoniae which is tested in BHI broth (Difco, Irvine/USA) with 10% bovine serum with a cell count of 10^6 microbes per ml. The cultures are incubated at 37° C. for 18-24 hours, S. pneumoniae in the presence of 10% CO2.
(§15) The MIC is defined as the lowest concentration of each substance at which no visible bacterial growth occurs any longer. The MIC values are reported in μg/ml.

The test system of data set [3] is Streptococcus pneumoniae G9a. The class given is cell-based. The following applies: BHI broth with 10% bovine serum, 10^6 microbes per ml, 10% CO2, 37° C., 18-24 hours. The protocol:
as §13, §14, §15

Data set [4] can be described thus: Determination of the free fraction (fu) in plasma. The following applies: human. In kind it is in vitro ADME. Here is the method: as §1, §2, §3, §4, §5, §6, §7, §8, §9, §10, §11, §12
The test system of data set [5] is E. faecalis ICB 27159. In kind it is cell-based, Enterococcus faecalis. The following applies: Isosensitest medium, 10^5 microbes per ml, 37° C., 18-24 hours. The protocol:
as §13, §14, §15

Setting [6] is: rat plasma, read-out: Free fraction (rat plasma).
Where [7] appears, read: read-out: Free fraction (human plasma).

In brackets after ≈: the same amount, converted by molar mass. Read-outs that look alike come from different tables or passages of the source. *1 amine or outer side, *2 acyl side, *3 side chain or, on linkers, in order; H or OH if unused. Where a SMILES comes first, the peptide text is derived from it. Bridges are numbered along the chain shown (N, C = ends). [ ]: non-standard residue; d: D form. Phe(3R-OH) = O=C([C@@H](N[*:1])[C@H](O[*:3])c1ccccc1)[*:2]; X2 = O=C(NCCO)[C@@H](O)[C@H](N[*:1])C(=O)[*:2]; X1 = CNC(=O)[C@@H](O)[C@H](N[*:1])C(=O)[*:2]; Asn(3S-OH) = NC(=O)[C@@H](O)[C@H](N)C(=O)O; Leu(3R-OH) = CC(C)[C@@H](O)[C@H](N)C(=O)O; aThr = C[C@H](O)[C@H](N)C(=O)O

As to `CC[C@H](C)[C@@H]1NC(=O)[C@@H](CCCNC(=N)N)NC(=O)[C@H](CC(C)C)NC(=O)[C@H]([C@H](O)C(C)C)NC(=O)[C@@H](NC(=O)[C@H](CC(C)C)NC(=O)[C@H](N)CC(C)C)[C@@H](c2ccccc2)OC(=O)[C@H](CO)NC(=O)[C@H]([C@H](O)C(=O)NC)NC(=O)CNC(=O)[C@H]([C@H](C)O)NC1=O` [Example 3, N^4.10-Methyl-D-leucyl-L-leucyl-[(3R)-3-hydroxy-L-phenylalanyl]-[(3R)-3-hydroxy-L-leucyl]-L-leucyl-D-arginyl-L-isoleucyl-L-allothreonylglycyl-[(3S)-3-hydroxy-L-asparaginyl]-L-serine C^1.11—O^3.3-lactone Bistrifluoroacetate] (H-[dL]L[Phe(3R-OH)][Leu(3R-OH)]L[dR]I[aThr]G[X1]S; ester 3-C), the fraction unbound at 30 min, 200 ng/mL in data set [1] (setting [6]) worked out at 0.129. In data set [2], the “MIC S. aureus 133” value came to 0.25 µg/mL (≈ 0.194 µM). For the same compound, the “MIC S. pneumoniae G9a” value in data set [3] worked out at 0.5 µg/mL (≈ 0.387 µM). Also, the fraction unbound at 30 min in data set [4] (setting [7]) worked out at 0.051. For the same compound, in data set [5], the “MIC E. faecalis ICB 27159” value was determined as 2 µg/mL (≈ 1.55 µM).
As for `CC[C@H](C)[C@@H]1NC(=O)[C@@H](CCCNC(=N)N)NC(=O)[C@H](CC(C)C)NC(=O)[C@H]([C@H](O)C(C)C)NC(=O)[C@@H](NC(=O)[C@H](CC(C)C)NC(=O)[C@H](N)CC(C)C)[C@@H](c2ccccc2)OC(=O)[C@H](CO)NC(=O)[C@H]([C@H](O)C(=O)NCCO)NC(=O)CNC(=O)[C@H]([C@H](C)O)NC1=O` [Example 2, N^4.10-(2-Hydroxyethyl)-D-leucyl-L-leucyl-[(3R)-3-hydroxy-L-phenylalanyl]-[(3R)-3-hydroxy-L-leucyl]-L-leucyl-D-arginyl-L-isoleucyl-L-allothreonylglycyl-[(3S)-3-hydroxy-L-asparaginyl]-L-serine C^1.11—O^3.3-lactone Bistrifluoroacetate] (H-[dL]L[Phe(3R-OH)][Leu(3R-OH)]L[dR]I[aThr]G[X2]S; ester 3-C), the fraction unbound at 30 min, 200 ng/mL in data set [1] (setting [6]) was 0.137. Moreover, the “MIC S. aureus 133” value in data set [2] was found to be 1 µg/mL (≈ 0.757 µM). For the same compound, the “MIC S. pneumoniae G9a” value in data set [3] came to 2 µg/mL (≈ 1.51 µM). In addition, in data set [4] (setting [7]), the fraction unbound at 30 min turned out to be 0.099. For the same compound, the “MIC E. faecalis ICB 27159” value in data set [5] worked out at 16 µg/mL (≈ 12.1 µM).
The compound `CC[C@H](C)[C@@H]1NC(=O)[C@@H](CCCNC(=N)N)NC(=O)[C@H](CC(C)C)NC(=O)[C@H]([C@H](O)C(C)C)NC(=O)[C@@H](NC(=O)[C@H](CC(C)C)NC(=O)[C@H](N)CC(C)C)[C@@H](c2ccccc2)OC(=O)[C@H](CO)NC(=O)[C@H]([C@H](O)C(N)=O)NC(=O)CNC(=O)[C@H]([C@H](C)O)NC1=O` [1a (Lysobactin), D-Leucyl-N^1-{(3S,6S,12S,15S,18R,21S,24S,27S,28R)-6-[(1S)-2-amino-1-hydroxy-2-oxo-ethyl]-18-(3-{[amino(imino)methyl]amino}propyl)-12-[(1S)-1-hydroxyethyl]-3-(hydroxy-methyl)-24-[(1R)-1-hydroxy-2-methylpropyl]-21-isobutyl-15-[(1S)-1-methylpropyl]-2,5,8,11,14,17,20,23,26-nonaoxo-28-phenyl-1-oxa-4,7,10,13,16,19,22,25-octaazacyclo-octacosan-27-yl}-L-leucinamide Bistrifluoroacetate, reference compound] (H-[dL]L[Phe(3R-OH)][Leu(3R-OH)]L[dR]I[aThr]G[Asn(3S-OH)]S; ester 3-C) yielded a fraction unbound at 30 min, 200 ng/mL in data set [1] (rat, plasma) of 0.0076. Further, in data set [4], the fraction unbound at 30 min worked out at 0.0081.
